Assay results reported in article PMC8812549 (Journal of medicinal chemistry, 2021).

Assay: Parallel artificial membrane permeability assay
Type: in vitro ADME
Conditions: passive permeability, pH 7.4

Row | SMILES | PAMPA
1 | Cc1ccc(C2CC(N(Cc3ccc(Br)c(Cl)c3)C3CCNCC3)C2)cc1 (stereo not drawn) [compound 56, N-(4-Bromo-3-chlorobenzyl)-N-(3-(p-tolyl)cyclobutyl)piperidin-4-amine] | 806 1e^−6 cm/s
2 | CC(=O)N1CCC(N(Cc2ccc(Br)c(Cl)c2)C2CC(c3ccc(C)cc3)C2)CC1 (stereo not drawn) [compound 67] | 1909 1e^−6 cm/s
3 | Clc1cc(CN(C2CCNCC2)C2CC(c3cccc(Br)c3)C2)ccc1Br (stereo not drawn) [compound 62] | 14 1e^−6 cm/s
4 | Clc1cc(CN(C2CCNCC2)C2CC(c3ccc(Br)cc3)C2)ccc1Br (stereo not drawn) [compound 58, N-(4-Bromo-3-chlorobenzyl)-N-(3-(4-bromophenyl)cyclobutyl)piperidin-4-amine] | 32 1e^−6 cm/s
5 | Cc1cccc(C2CC(N(Cc3ccc(Br)c(Cl)c3)C3CCNCC3)C2)c1 (stereo not drawn) [compound 60] | 265 1e^−6 cm/s
6 | Cc1ccc(C2CC(N(Cc3ccc(Br)c(Cl)c3)C3CCOCC3)C2)cc1 (stereo not drawn) [compound 66] | <6.4 1e^−6 cm/s
7 | Fc1ccc(C2CC(N(Cc3ccc(Br)c(Cl)c3)C3CCNCC3)C2)cc1 (stereo not drawn) [compound 59] | 398 1e^−6 cm/s

Other lines, results leading:

Row | PAMPA | SMILES
8 | <23.1 1e^−6 cm/s | Cc1ccc(C2CC(N(Cc3ccc(Br)c(Cl)c3)C3CCN(C(C)C)CC3)C2)cc1 (stereo not drawn) [compound 69]
9 | 665.84 1e^−6 cm/s | Cc1ccc(C2CC(N(Cc3ccc(Br)c(Cl)c3)C3CCCNCC3)C2)cc1 (stereo not drawn) [compound 72]
10 | 274.27 1e^−6 cm/s | Cc1ccc(C2CC(N(Cc3ccc(Br)c(Cl)c3)C3CCN(C)CC3)C2)cc1 (stereo not drawn) [compound 68]
11 | 122.99 1e^−6 cm/s | Cc1ccc(C2CC(N(Cc3ccc(Br)c(Cl)c3)C3CC4CNC3C4)C2)cc1 (stereo not drawn) [compound 74]
12 | 818.04 1e^−6 cm/s | Cc1ccc(C2CC(N(Cc3ccc(Br)c(Cl)c3)C3CCC(N)CC3)C2)cc1 (stereo not drawn) [compound 70]

Assay: not given
Conditions: mice, 1 mg/kg, di-HCl salt; liver

Row | Cmax liver | SMILES
13 | 4.13 µM | Cc1ccc([C@H]2C[C@H](N(Cc3ccc(Br)c(Cl)c3)C3CCNCC3)C2)cc1 [77b]

Same assay, conditions: mice, 10 mg/kg IP, 24 hours; posture, body temperature, respiratory rate

Row | SMILES | unusual behavior or acute toxicity
14 | Clc1cc(CN(C2CCNCC2)C2CC(c3ccc(Br)cc3)C2)ccc1Br (stereo not drawn) [compound 58, N-(4-Bromo-3-chlorobenzyl)-N-(3-(4-bromophenyl)cyclobutyl)piperidin-4-amine] | No unusual behavior or acute toxicity

Same assay, conditions: mice, 10 mg/kg IP, oxalate salt; liver

Row | SMILES | Cmax liver
15 | Clc1cc(CN(C2CCNCC2)C2CC(c3ccc(Br)cc3)C2)ccc1Br (stereo not drawn) [compound 58, N-(4-Bromo-3-chlorobenzyl)-N-(3-(4-bromophenyl)cyclobutyl)piperidin-4-amine] | 112 µM
